From ChEMBL document CHEMBL4184185, “Dihydrobenzisoxazole-4-one compounds are novel selective inhibitors of aldosterone synthase (CYP11B2) with in vivo activity” (Bioorg Med Chem Lett, 2018)
Calls of active or inactive are those of the source. The calls are words filed in the database; no cut-off is given here.

What was measured:
[1] = Inhibition of cynomolgus monkey adrenal mitochondrial CYP11B2 using corticosterone as substrate after 60 mins in presence of NADPH by mass spectrometric analysis
[2] = target: T1, Cytochrome P450 11B2, mitochondrial (Homo sapiens, UniProt P19099); assay: Inhibition of recombinant human CYP11B2 expressed in Chinese hamster V79MZ cells assessed as reduction in aldosterone production at 20 uM by mass spectrometric method; assay type: cell-based
T1 sequence (P19099 whole entry): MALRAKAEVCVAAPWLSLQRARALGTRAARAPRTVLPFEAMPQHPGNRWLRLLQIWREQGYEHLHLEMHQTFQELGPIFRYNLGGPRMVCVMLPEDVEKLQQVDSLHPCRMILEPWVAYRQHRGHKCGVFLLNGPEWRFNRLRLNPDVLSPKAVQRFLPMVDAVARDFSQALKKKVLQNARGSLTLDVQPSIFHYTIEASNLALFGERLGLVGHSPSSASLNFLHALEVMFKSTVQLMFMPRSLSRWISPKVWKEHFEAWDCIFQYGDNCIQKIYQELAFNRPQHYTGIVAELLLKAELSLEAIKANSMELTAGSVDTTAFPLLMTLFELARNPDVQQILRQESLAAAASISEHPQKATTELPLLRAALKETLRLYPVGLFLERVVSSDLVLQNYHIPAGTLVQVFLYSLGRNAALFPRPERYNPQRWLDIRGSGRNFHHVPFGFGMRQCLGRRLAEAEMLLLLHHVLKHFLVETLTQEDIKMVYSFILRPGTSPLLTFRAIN

[3] = Inhibition of cynomolgus monkey adrenal mitochondrial CYP11B1 using 11-deoxycortisol as substrate after 90 mins in presence of NADPH by mass spectrometric analysis
[4] = target: T2, Steroid 17-alpha-hydroxylase/17,20 lyase (Homo sapiens, UniProt P05093); assay: Inhibition of CYP17A1 (unknown origin); assay type: ADME
T2 sequence (P05093 whole entry): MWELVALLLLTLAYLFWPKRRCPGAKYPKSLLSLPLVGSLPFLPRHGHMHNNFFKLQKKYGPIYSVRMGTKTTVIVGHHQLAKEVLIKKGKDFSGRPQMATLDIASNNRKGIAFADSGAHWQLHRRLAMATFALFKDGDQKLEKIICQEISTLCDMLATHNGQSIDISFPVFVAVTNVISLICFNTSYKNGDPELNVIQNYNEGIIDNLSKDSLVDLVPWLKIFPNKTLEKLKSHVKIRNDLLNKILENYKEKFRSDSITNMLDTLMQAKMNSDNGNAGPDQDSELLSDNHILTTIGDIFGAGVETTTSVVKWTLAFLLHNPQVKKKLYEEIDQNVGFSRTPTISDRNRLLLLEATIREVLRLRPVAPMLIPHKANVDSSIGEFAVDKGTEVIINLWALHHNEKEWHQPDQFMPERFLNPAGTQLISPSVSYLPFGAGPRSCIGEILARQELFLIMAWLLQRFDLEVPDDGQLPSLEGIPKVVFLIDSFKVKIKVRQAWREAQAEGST

Macaca fascicularis [5] = species: Macaca fascicularis; assay: Selectivity index, ratio of IC50 for cynomolgus monkey adrenal mitochondrial CYP11B1 to IC50 for cynomolgus monkey adrenal mitochondrial CYP11B2
Aromatase [6] = target: T3, Aromatase (Homo sapiens, UniProt P11511); assay: Inhibition of CYP19A1 (unknown origin)
T3 sequence (P11511 whole entry): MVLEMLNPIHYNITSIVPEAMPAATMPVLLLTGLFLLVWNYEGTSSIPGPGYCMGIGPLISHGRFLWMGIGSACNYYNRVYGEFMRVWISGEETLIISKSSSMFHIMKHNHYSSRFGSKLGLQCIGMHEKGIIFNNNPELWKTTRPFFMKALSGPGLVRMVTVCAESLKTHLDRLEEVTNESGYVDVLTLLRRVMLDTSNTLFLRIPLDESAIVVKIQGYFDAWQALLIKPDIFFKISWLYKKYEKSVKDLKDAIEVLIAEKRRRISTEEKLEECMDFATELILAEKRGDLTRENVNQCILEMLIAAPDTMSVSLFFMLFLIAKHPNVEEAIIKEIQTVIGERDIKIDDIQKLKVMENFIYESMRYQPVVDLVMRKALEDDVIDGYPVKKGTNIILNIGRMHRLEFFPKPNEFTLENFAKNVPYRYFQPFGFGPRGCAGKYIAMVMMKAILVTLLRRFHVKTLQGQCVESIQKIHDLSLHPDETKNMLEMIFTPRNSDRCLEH

[7] = Clearance in human liver microsomes relative to hepatic blood flow; assay type: ADME, microsome; conditions: read-out: CLH
Macaca fascicularis [8] = species: Macaca fascicularis; assay: Inhibition of cynomolgus monkey adrenal mitochondrial CYP11B2 at 1 uM using corticosterone as substrate after 60 mins in presence of NADPH by mass spectrometric analysis
[9] = Clearance in human hepatocytes relative to hepatic blood flow; assay type: ADME, cell-based, Hepatocyte; conditions: read-out: CLH
[10] = Drug metabolism in human hepatocytes at 10 uM after 30 mins by LC-MS/MS analysis; assay type: ADME, cell-based, Hepatocyte; conditions: read-out: Drug metabolism
[11] = Drug metabolism in human hepatocytes assessed as 3-Amino-2-[2-(4-fluoro-phenyl)-acetyl]-5,5-dimethyl-cyclohex-2-enone metabolite formation at 10 uM after 30 mins by LC-MS/MS analysis; assay type: ADME, cell-based, Hepatocyte; conditions: 0.5 h
[12] = Drug metabolism in human hepatocytes assessed as 3-Amino-2-[2-(4-fluoro-phenyl)-acetyl]-5,5-dimethyl-cyclohex-2-enone metabolite formation at 10 uM after 30 mins by HPLC analysis; assay type: ADME, cell-based, Hepatocyte; conditions: 0.5 h
[13] = Drug metabolism in human hepatocytes assessed as 3-(4-fluorobenzyl)-6,6-dimethyl-4,5,6,7-tetrahydrobenzo[c]isoxazol-4-ol formation at 10 uM after 30 mins by LC-MS/MS analysis; assay type: ADME, cell-based, Hepatocyte; conditions: 0.5 h
[14] = Drug metabolism in human hepatocytes assessed as parent compound remaining at 10 uM after 30 mins by LC-MS/MS analysis; assay type: ADME, cell-based, Hepatocyte; conditions: read-out: Stability
[15] = target: T1, Cytochrome P450 11B2, mitochondrial; assay: Inhibition of recombinant human CYP11B2 expressed in Chinese hamster V79MZ cells assessed as reduction in aldosterone production by mass spectrometric method; assay type: cell-based
[16] = target: T2, Steroid 17-alpha-hydroxylase/17,20 lyase; assay: Inhibition of CYP17A1 (unknown origin) at 20 uM; assay type: ADME
Aromatase [17] = target: T3, Aromatase; assay: Inhibition of CYP19A1 (unknown origin) at 20 uM
Cytochrome P450 2C9 = Cytochrome P450 2C9 (Homo sapiens, UniProt P11712); assay: Inhibition of CYP2C9 (unknown origin) at 30 uM; assay type: ADME
Sequence of Cytochrome P450 2C9 (P11712 whole entry): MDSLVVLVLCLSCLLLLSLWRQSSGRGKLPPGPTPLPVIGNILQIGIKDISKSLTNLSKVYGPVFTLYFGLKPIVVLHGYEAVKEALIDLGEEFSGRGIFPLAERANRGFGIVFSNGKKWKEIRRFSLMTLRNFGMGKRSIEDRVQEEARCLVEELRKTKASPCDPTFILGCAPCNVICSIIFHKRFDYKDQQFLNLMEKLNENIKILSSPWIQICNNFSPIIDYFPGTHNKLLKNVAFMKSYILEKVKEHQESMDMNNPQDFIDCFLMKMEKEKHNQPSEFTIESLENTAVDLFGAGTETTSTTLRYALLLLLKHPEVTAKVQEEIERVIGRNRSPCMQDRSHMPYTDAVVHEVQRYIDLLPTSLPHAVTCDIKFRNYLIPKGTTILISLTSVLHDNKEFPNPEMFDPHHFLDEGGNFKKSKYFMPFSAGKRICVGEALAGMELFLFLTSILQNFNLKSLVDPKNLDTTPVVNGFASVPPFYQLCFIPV

Cytochrome P450 2D6 = Cytochrome P450 2D6 (Homo sapiens, UniProt P10635); assay: Inhibition of CYP2D6 (unknown origin) at 30 uM; assay type: ADME
Sequence of Cytochrome P450 2D6 (P10635 whole entry): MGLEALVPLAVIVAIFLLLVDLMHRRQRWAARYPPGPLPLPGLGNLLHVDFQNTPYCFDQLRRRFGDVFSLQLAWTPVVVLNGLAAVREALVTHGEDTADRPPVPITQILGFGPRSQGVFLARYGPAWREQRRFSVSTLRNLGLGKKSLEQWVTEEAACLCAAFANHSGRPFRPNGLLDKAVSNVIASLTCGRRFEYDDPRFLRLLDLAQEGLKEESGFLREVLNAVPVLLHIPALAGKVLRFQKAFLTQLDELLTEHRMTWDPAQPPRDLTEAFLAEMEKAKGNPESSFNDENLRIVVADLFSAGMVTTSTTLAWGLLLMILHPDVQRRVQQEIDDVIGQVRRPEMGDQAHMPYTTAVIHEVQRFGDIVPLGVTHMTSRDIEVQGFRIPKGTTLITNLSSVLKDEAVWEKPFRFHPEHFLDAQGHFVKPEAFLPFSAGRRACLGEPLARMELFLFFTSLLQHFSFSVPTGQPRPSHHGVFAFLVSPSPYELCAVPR

Cytochrome P450 3A4 = Cytochrome P450 3A4 (Homo sapiens, UniProt P08684); assay: Inhibition of CYP3A4 (unknown origin) at 30 uM; assay type: ADME
Sequence of Cytochrome P450 3A4 (P08684 whole entry): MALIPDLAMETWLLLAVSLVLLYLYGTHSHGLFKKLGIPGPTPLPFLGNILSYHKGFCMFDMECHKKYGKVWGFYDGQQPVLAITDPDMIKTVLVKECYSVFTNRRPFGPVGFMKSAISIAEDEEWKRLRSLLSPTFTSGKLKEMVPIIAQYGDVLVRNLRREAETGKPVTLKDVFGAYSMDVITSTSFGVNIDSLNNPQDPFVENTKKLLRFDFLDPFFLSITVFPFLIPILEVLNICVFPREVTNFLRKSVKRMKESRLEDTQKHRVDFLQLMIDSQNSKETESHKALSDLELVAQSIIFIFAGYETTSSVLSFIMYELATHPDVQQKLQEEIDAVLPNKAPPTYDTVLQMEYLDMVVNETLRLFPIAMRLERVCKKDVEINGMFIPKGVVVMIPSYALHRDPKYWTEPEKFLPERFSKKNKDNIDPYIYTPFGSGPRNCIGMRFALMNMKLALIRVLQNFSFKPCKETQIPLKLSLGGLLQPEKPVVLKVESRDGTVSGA

[18] = target: T1, Cytochrome P450 11B2, mitochondrial; assay: Inhibition of recombinant human CYP11B2 expressed in Chinese hamster V79MZ cells assessed as reduction in aldosterone production at 1 uM by mass spectrometric method; assay type: cell-based
[19] = Clearance in Wistar Han rat hepatocytes relative to hepatic blood flow; assay type: ADME, cell-based, Hepatocyte; conditions: read-out: CLH
[20] = Clearance in cynomolgus monkey hepatocytes relative to hepatic blood flow; assay type: ADME, cell-based, Macaca fascicularis, Hepatocyte; conditions: read-out: CLH
[21] = Clearance in Beagle dog hepatocytes relative to hepatic blood flow; assay type: ADME, cell-based, Canis lupus familiaris, Hepatocyte; conditions: read-out: CLH
Rattus norvegicus = assay: Clearance in iv dosed Wistar Han rat relative to hepatic blood flow; assay type: ADME, organism-based; conditions: in vivo
Cynomolgus monkey = assay: Clearance in iv dosed cynomolgus monkey relative to hepatic blood flow; assay type: ADME, organism-based, Macaca fascicularis; conditions: in vivo
Canis familiaris = assay: Clearance in iv dosed Beagle dog relative to hepatic blood flow; assay type: ADME, organism-based, Canis lupus familiaris; conditions: in vivo
[22] = Oral bioavailability in Wistar Han rat; assay type: ADME, organism-based; conditions: in vivo
[23] = Oral bioavailability in Beagle dog; assay type: ADME, organism-based, Canis lupus familiaris; conditions: in vivo

Row | SMILES | pIC50 [1] | pIC50 [3] | Ratio IC50 (Macaca fascicularis [5]) | hepatic extraction ratio [7] | further results
1 | Clc1ccc(-c2ccn[nH]2)cc1Cl | 5.3 |  |  |  | inhibition (INH) [2]: Not Active
2 | N#Cc1ccc([C@H]2CCc3cncn32)c(F)c1 [OSILODROSTAT] | 7.7 | 7.4 |  |  | IC50 [4]: 3.98 µM
3 | CC1(C)CC(=O)c2c(ncn2Cc2ccccc2)C1 | 7 |  |  |  | 
4 | CN1C(=O)CCc2cc(-c3cccnc3)ccc21 | 8.4 | 6 | 230 |  | IC50 [4]: 0.316 µM; IC50 (Aromatase [6]): 0.1 µM
5 | CC1(C)CC(=O)c2c(noc2-c2ccccc2)C1 | < 6 | 4.3 | < 53 | 0.85 | IC50 [4]: > 31.6 µM
6 | CC1(C)CC(=O)C(C(=O)Cc2ccc(F)cc2)=C(N)C1 |  |  |  |  | inhibition (Macaca fascicularis [8]): inactive
7 | Clc1ccc(-c2ccno2)cc1Cl | < 4.7 |  |  |  | inhibition (INH) [2]: Not Active
8 | CC1(C)CC(=O)c2c(noc2Cc2ccc(S(C)(=O)=O)cc2)C1 | 7.1 | 5.4 | 42 | < 0.24 | IC50 [4]: > 31.6 µM; hepatic extraction ratio [9]: 0.59
9 | N#Cc1ccc(Cc2onc3c2C(=O)CC(C2CC2)C3)cc1 (centres undefined) | 6.8 | 5.6 | 15 | 0.83 | 
10 | CC1(C)CC(=O)c2c(noc2Cc2ccc(F)cc2)C1 | 6.8 | 4.7 | 130 | < 0.24 | hepatic extraction ratio [9]: 0.91; metabolised at 0.5 h, 10 µM [10]: 72%; Drug metabolism [11]: Metabolite_Detected; Drug metabolism [12]: Metabolite_Detected; Drug metabolism [13]: Metabolite_Detected; remaining at 0.5 h, 10 µM [14]: 28%
11 | CC1(C)CC(=O)c2c(noc2Cc2ccccc2)C1 | 7.1 | 5.1 | 100 | 0.64 | IC50 [1]: 79 nM; inhibition (INH) [15]: Active; IC50 [4]: > 31.6 µM; IC50 (Aromatase [6]): > 31.6 µM; inhibition (INH) [16]: Not Active; inhibition (INH) (Aromatase [17]): Not Active; inhibition (INH) (Cytochrome P450 2C9): Not Active; inhibition (INH) (Cytochrome P450 2D6): Not Active; inhibition (INH) (Cytochrome P450 3A4): Not Active
12 | CC1(C)CC(=O)c2c(n[nH]c2Cc2ccc(C#N)cc2)C1 | < 6 |  |  |  | inhibition at 1 µM [18]: 54%
13 | O=C1CCCc2noc(Cc3ccccc3)c21 | 6.1 | 4.6 | 32 | 0.73 | 
14 | CC1CC(=O)c2c(noc2Cc2ccc(C#N)cc2)C1 (centres undefined) | 6.7 | 5.1 | 39 | 0.38 | 
15 | CC1(C)Cc2noc(Cc3ccc(F)cc3)c2C(O)C1 (centres undefined) |  |  |  |  | inhibition (Macaca fascicularis [8]): inactive
16 | CC1CC(=O)c2c(noc2Cc2ccccc2)C1 (centres undefined) | 7.6 | 5.5 | 130 | 0.73 | 
17 | CC1(C)CC(=O)c2c(noc2Cc2ccc(C(=O)N3CC[C@@H](O)C3)cc2)C1 | 7 | 5 | 160 | < 0.24 | IC50 (Aromatase [6]): > 20 µM; inhibition (INH) (Aromatase [17]): Not Active; inhibition (INH) (Cytochrome P450 2C9): Not Active; inhibition (INH) (Cytochrome P450 2D6): Not Active; inhibition (INH) (Cytochrome P450 3A4): Not Active; hepatic extraction ratio [9]: < 0.24; remaining at 0.5 h, 10 µM [14]: 98%; hepatic extraction ratio [19]: 0.52; hepatic extraction ratio [20]: 0.28; hepatic extraction ratio [21]: < 0.3; CL (Rattus norvegicus): 31%; CL (Cynomolgus monkey): 75%; CL (Canis familiaris): 35%; bioavailability [22]: 11%; bioavailability [23]: 85%
18 | CN1CCN(C(=O)c2ccc(Cc3onc4c3C(=O)CC(C)(C)C4)cc2)CC1=O | 6.8 | 5 | 64 | < 0.24 | IC50 (Aromatase [6]): > 31.6 µM; inhibition (INH) (Aromatase [17]): Not Active; inhibition (INH) (Cytochrome P450 2C9): Not Active; inhibition (INH) (Cytochrome P450 2D6): Not Active; inhibition (INH) (Cytochrome P450 3A4): Not Active; hepatic extraction ratio [9]: 0.41
19 | Clc1ccc(-n2ccnc2)cc1Cl | 7.2 |  |  |  | inhibition (INH) [2]: Not Active
20 | CC1(C)CC(=O)c2c(noc2Cc2ccc(C#N)cc2)C1 | 7.1 | 4.1 | 940 | 0.55 | inhibition (INH) [15]: Active
21 | CC1(C)CC(=O)c2c(noc2Cc2ccc(C(N)=O)cc2)C1 | 7 | 4.8 | 150 | 0.33 | IC50 (Aromatase [6]): > 20 µM; inhibition (INH) (Aromatase [17]): Not Active; inhibition (INH) (Cytochrome P450 2C9): Not Active; inhibition (INH) (Cytochrome P450 2D6): Not Active; inhibition (INH) (Cytochrome P450 3A4): Not Active; hepatic extraction ratio [9]: 0.33; remaining at 0.5 h, 10 µM [14]: 55%; hepatic extraction ratio [19]: 0.6; hepatic extraction ratio [20]: 0.22; CL (Rattus norvegicus): 62%; CL (Cynomolgus monkey): 57%; bioavailability [22]: 8%
22 | COc1ccc(Cc2onc3c2C(=O)CC(C)(C)C3)cc1 | 7.8 | 5.8 | 95 | 0.86 | IC50 [4]: > 31.6 µM; IC50 (Aromatase [6]): > 31.6 µM
23 | CC1(C)CCc2c(noc2Cc2ccc(C#N)cc2)C1 | 6.8 | 5.5 | 17 | 0.37 | 
